Values of other authors in paper PMC6314896 (Chembiochem : a European journal of chemical biology, 2018).

Tested on: trypsin
Details: both toxins under the same conditions

Substance | stability to trypsin (in words)
ProTx-I | degraded rapidly
ProTx-II | completely stable
